assay: The drug is tested on Collinsella intestinalis strain: DSM13280 for biotransformation. The drug concentrations were measured before and after a 12-h incubation by liquid-chromatography-coupled mass spectrometry (LC–MS); conditions: 2 µM

Compound | Bacterial Biotransformation
CN1C(=O)CC(C)(c2ccccc2)C1=O (centres undefined) [METHSUXIMIDE] | Compound NOT metabolized
COc1ccc(Cc2nccc3cc(OC)c(OC)cc23)cc1OC [PAPAVERINE] | Compound NOT metabolized
COC(=O)Nc1nc2ccc(C(=O)c3ccccc3)cc2[nH]1 [MEBENDAZOLE] | Compound NOT metabolized

assay: The drug is tested on Alistipes indistinctus strain: DSM22520 for biotransformation. The drug concentrations were measured before and after a 12-h incubation by liquid-chromatography-coupled mass spectrometry (LC–MS); conditions: 2 µM

Compound | Bacterial Biotransformation
CN1C(=O)CC(C)(c2ccccc2)C1=O (centres undefined) [METHSUXIMIDE] | Compound NOT metabolized
COC(=O)Nc1nc2ccc(C(=O)c3ccccc3)cc2[nH]1 [MEBENDAZOLE] | Compound NOT metabolized

assay: The drug is tested on Bacteroides coprophilus strain: DSM18228 for biotransformation. The drug concentrations were measured before and after a 12-h incubation by liquid-chromatography-coupled mass spectrometry (LC–MS); conditions: 2 µM

Compound | Bacterial Biotransformation
CN1C(=O)CC(C)(c2ccccc2)C1=O (centres undefined) [METHSUXIMIDE] | Compound NOT metabolized
COc1ccc(Cc2nccc3cc(OC)c(OC)cc23)cc1OC [PAPAVERINE] | Compound NOT metabolized
COC(=O)Nc1nc2ccc(C(=O)c3ccccc3)cc2[nH]1 [MEBENDAZOLE] | Compound NOT metabolized

assay: The drug is tested on Bacteroides fragilis strain: HMW610 for biotransformation. The drug concentrations were measured before and after a 12-h incubation by liquid-chromatography-coupled mass spectrometry (LC–MS); conditions: 2 µM

Compound | Bacterial Biotransformation
COC(=O)Nc1nc2ccc(C(=O)c3ccccc3)cc2[nH]1 [MEBENDAZOLE] | Compound metabolized

assay: The drug is tested on Bacteroides fragilis strain: ATCC43859 for biotransformation. The drug concentrations were measured before and after a 12-h incubation by liquid-chromatography-coupled mass spectrometry (LC–MS); conditions: 2 µM

Compound | Bacterial Biotransformation
CN1C(=O)CC(C)(c2ccccc2)C1=O (centres undefined) [METHSUXIMIDE] | Compound NOT metabolized
COc1ccc(Cc2nccc3cc(OC)c(OC)cc23)cc1OC [PAPAVERINE] | Compound NOT metabolized

assay: The drug is tested on Bacteroides ovatus strain: ATCC8483 for biotransformation. The drug concentrations were measured before and after a 12-h incubation by liquid-chromatography-coupled mass spectrometry (LC–MS); conditions: 2 µM

Compound | Bacterial Biotransformation
CN1C(=O)CC(C)(c2ccccc2)C1=O (centres undefined) [METHSUXIMIDE] | Compound NOT metabolized
COc1ccc(Cc2nccc3cc(OC)c(OC)cc23)cc1OC [PAPAVERINE] | Compound NOT metabolized
COC(=O)Nc1nc2ccc(C(=O)c3ccccc3)cc2[nH]1 [MEBENDAZOLE] | Compound NOT metabolized

assay: The drug is tested on Bacteroides pectinophilus strain: ATCC43243 for biotransformation. The drug concentrations were measured before and after a 12-h incubation by liquid-chromatography-coupled mass spectrometry (LC–MS); conditions: 2 µM

Compound | Bacterial Biotransformation
COc1ccc(Cc2nccc3cc(OC)c(OC)cc23)cc1OC [PAPAVERINE] | Compound NOT metabolized
COC(=O)Nc1nc2ccc(C(=O)c3ccccc3)cc2[nH]1 [MEBENDAZOLE] | Compound NOT metabolized

assay: The drug is tested on Parabacteroides merdae strain: ATCC43184 for biotransformation. The drug concentrations were measured before and after a 12-h incubation by liquid-chromatography-coupled mass spectrometry (LC–MS); conditions: 2 µM

Compound | Bacterial Biotransformation
CN1C(=O)CC(C)(c2ccccc2)C1=O (centres undefined) [METHSUXIMIDE] | Compound NOT metabolized
COc1ccc(Cc2nccc3cc(OC)c(OC)cc23)cc1OC [PAPAVERINE] | Compound NOT metabolized
COC(=O)Nc1nc2ccc(C(=O)c3ccccc3)cc2[nH]1 [MEBENDAZOLE] | Compound NOT metabolized

assay: The drug is tested on Blautia luti strain: DSM14534 for biotransformation. The drug concentrations were measured before and after a 12-h incubation by liquid-chromatography-coupled mass spectrometry (LC–MS); assay type: ADME; set-up: dose 2 uM, timepoint 0 vs 12 hours; conditions: 2 µM

Compound | Bacterial Biotransformation
CN1C(=O)CC(C)(c2ccccc2)C1=O (centres undefined) [METHSUXIMIDE] | Compound NOT metabolized
COc1ccc(Cc2nccc3cc(OC)c(OC)cc23)cc1OC [PAPAVERINE] | Compound NOT metabolized

assay: The drug is tested on Clostridium symbiosum strain: ATCC14940 for biotransformation. The drug concentrations were measured before and after a 12-h incubation by liquid-chromatography-coupled mass spectrometry (LC–MS); conditions: 2 µM

Compound | Bacterial Biotransformation
CN1C(=O)CC(C)(c2ccccc2)C1=O (centres undefined) [METHSUXIMIDE] | Compound NOT metabolized
COc1ccc(Cc2nccc3cc(OC)c(OC)cc23)cc1OC [PAPAVERINE] | Compound NOT metabolized
COC(=O)Nc1nc2ccc(C(=O)c3ccccc3)cc2[nH]1 [MEBENDAZOLE] | Compound NOT metabolized

assay: The drug is tested on Coprococcus comes strain: ATCC27758 for biotransformation. The drug concentrations were measured before and after a 12-h incubation by liquid-chromatography-coupled mass spectrometry (LC–MS); assay type: ADME; set-up: dose 2 uM, timepoint 0 vs 12 hours; conditions: 2 µM

Compound | Bacterial Biotransformation
CN1C(=O)CC(C)(c2ccccc2)C1=O (centres undefined) [METHSUXIMIDE] | Compound NOT metabolized
COc1ccc(Cc2nccc3cc(OC)c(OC)cc23)cc1OC [PAPAVERINE] | Compound NOT metabolized
COC(=O)Nc1nc2ccc(C(=O)c3ccccc3)cc2[nH]1 [MEBENDAZOLE] | Compound NOT metabolized

assay: The drug is tested on Dorea formicigenerans strain: ATCC27755 for biotransformation. The drug concentrations were measured before and after a 12-h incubation by liquid-chromatography-coupled mass spectrometry (LC–MS); conditions: 2 µM

Compound | Bacterial Biotransformation
CN1C(=O)CC(C)(c2ccccc2)C1=O (centres undefined) [METHSUXIMIDE] | Compound NOT metabolized
COc1ccc(Cc2nccc3cc(OC)c(OC)cc23)cc1OC [PAPAVERINE] | Compound NOT metabolized
COC(=O)Nc1nc2ccc(C(=O)c3ccccc3)cc2[nH]1 [MEBENDAZOLE] | Compound NOT metabolized

assay: The drug is tested on Eubacterium rectale strain: ATCC33656 for biotransformation. The drug concentrations were measured before and after a 12-h incubation by liquid-chromatography-coupled mass spectrometry (LC–MS); conditions: agathobacter rectalis, 2 µM

Compound | Bacterial Biotransformation
COc1ccc(Cc2nccc3cc(OC)c(OC)cc23)cc1OC [PAPAVERINE] | Compound NOT metabolized
COC(=O)Nc1nc2ccc(C(=O)c3ccccc3)cc2[nH]1 [MEBENDAZOLE] | Compound NOT metabolized

assay: The drug is tested on Ruminococcus torques strain: ATCC27756 for biotransformation. The drug concentrations were measured before and after a 12-h incubation by liquid-chromatography-coupled mass spectrometry (LC–MS); assay type: ADME; set-up: dose 2 uM, timepoint 0 vs 12 hours; conditions: 2 µM

Compound | Bacterial Biotransformation
CN1C(=O)CC(C)(c2ccccc2)C1=O (centres undefined) [METHSUXIMIDE] | Compound NOT metabolized
COc1ccc(Cc2nccc3cc(OC)c(OC)cc23)cc1OC [PAPAVERINE] | Compound NOT metabolized
COC(=O)Nc1nc2ccc(C(=O)c3ccccc3)cc2[nH]1 [MEBENDAZOLE] | Compound NOT metabolized

assay: The drug is tested on Subdoligranulum variabile strain: DSM15176 for biotransformation. The drug concentrations were measured before and after a 12-h incubation by liquid-chromatography-coupled mass spectrometry (LC–MS); conditions: 2 µM

Compound | Bacterial Biotransformation
CN1C(=O)CC(C)(c2ccccc2)C1=O (centres undefined) [METHSUXIMIDE] | Compound NOT metabolized
COc1ccc(Cc2nccc3cc(OC)c(OC)cc23)cc1OC [PAPAVERINE] | Compound NOT metabolized
COC(=O)Nc1nc2ccc(C(=O)c3ccccc3)cc2[nH]1 [MEBENDAZOLE] | Compound NOT metabolized

assay: The drug is tested on Edwardsiella tarda strain: ATCC23685 for biotransformation. The drug concentrations were measured before and after a 12-h incubation by liquid-chromatography-coupled mass spectrometry (LC–MS); conditions: 2 µM

Compound | Bacterial Biotransformation
CN1C(=O)CC(C)(c2ccccc2)C1=O (centres undefined) [METHSUXIMIDE] | Compound NOT metabolized
COc1ccc(Cc2nccc3cc(OC)c(OC)cc23)cc1OC [PAPAVERINE] | Compound NOT metabolized
COC(=O)Nc1nc2ccc(C(=O)c3ccccc3)cc2[nH]1 [MEBENDAZOLE] | Compound NOT metabolized

assay: The drug is tested on Enterobacter cancerogenus strain: ATCC35316 for biotransformation. The drug concentrations were measured before and after a 12-h incubation by liquid-chromatography-coupled mass spectrometry (LC–MS); conditions: 2 µM

Compound | Bacterial Biotransformation
COc1ccc(Cc2nccc3cc(OC)c(OC)cc23)cc1OC [PAPAVERINE] | Compound NOT metabolized
COC(=O)Nc1nc2ccc(C(=O)c3ccccc3)cc2[nH]1 [MEBENDAZOLE] | Compound NOT metabolized

conditions: bacteroides stercoris, 12 h, 2 µM
Description: The drug is tested on Bacteroides stercoris strain: ATCC43183 for biotransformation. The drug concentrations were measured before and after a 12-h incubation by liquid-chromatography-coupled mass spectrometry (LC–MS)

Compound | Bacterial Biotransformation
CN1C(=O)CC(C)(c2ccccc2)C1=O (centres undefined) [METHSUXIMIDE] | Compound NOT metabolized
COc1ccc(Cc2nccc3cc(OC)c(OC)cc23)cc1OC [PAPAVERINE] | Compound NOT metabolized
COC(=O)Nc1nc2ccc(C(=O)c3ccccc3)cc2[nH]1 [MEBENDAZOLE] | Compound metabolized

conditions: enterocloster bolteae, 12 h, 2 µM
Description: The drug is tested on Clostridium bolteae strain: ATCCBAA-613 for biotransformation. The drug concentrations were measured before and after a 12-h incubation by liquid-chromatography-coupled mass spectrometry (LC–MS)

Compound | Bacterial Biotransformation
CN1C(=O)CC(C)(c2ccccc2)C1=O (centres undefined) [METHSUXIMIDE] | Compound NOT metabolized
COc1ccc(Cc2nccc3cc(OC)c(OC)cc23)cc1OC [PAPAVERINE] | Compound NOT metabolized
COC(=O)Nc1nc2ccc(C(=O)c3ccccc3)cc2[nH]1 [MEBENDAZOLE] | Compound NOT metabolized

From ChEMBL document CHEMBL5303573, “Mapping human microbiome drug metabolism by gut bacteria and their genes” (Nature, 2019)
